The NIST ThermoML archive (doi:10.1016/j.tca.2011.12.010)
“And” between values parts separate entries of the source, which are not always exact repeats. Equal values may be shown once.

Test: molar heat capacity at constant pressure
Conditions: 101.33 kPa, Small sample (50 mg) DSC

O=[N+]([O-])[O-].O=[N+]([O-])[O-].O=[N+]([O-])[O-].O=[N+]([O-])[O-].[K+].[K+].[Mg+2] [bis-potassium magnesium nitrate]
Conditions	molar heat capacity at constant pressure
461 K, Crystal 1	606.9 J/K/mol
462 K, Crystal 1	680.8 J/K/mol
463 K, Crystal 1	806.8 J/K/mol
464 K, Crystal 1	1030.1 J/K/mol
465 K, Crystal 1	1503.6 J/K/mol
466 K, Crystal 1	2552.2 J/K/mol
467 K, Crystal 1	4003 J/K/mol
469 K, Liquid	2955.4 J/K/mol
470 K, Liquid	2419.9 J/K/mol
471 K, Liquid	1683.9 J/K/mol
472 K, Liquid	1106.4 J/K/mol
473 K, Liquid	770 J/K/mol
474 K, Liquid	542.5 J/K/mol
475 K, Liquid	510 J/K/mol
476 K, Liquid	480.6 J/K/mol
477 K, Liquid	469 J/K/mol
478 K, Liquid	455.6 J/K/mol
478.15 K, Liquid	463.8 J/K/mol
479 K, Liquid	462.4 J/K/mol
480 K, Liquid	462.4 J/K/mol
481 K, Liquid	462.4 J/K/mol
482 K, Liquid	462.6 J/K/mol
483 K, Liquid	462.8 J/K/mol
484 K, Liquid	463 J/K/mol
485 K, Liquid	459.2 J/K/mol and 463.2 J/K/mol
486 K, Liquid	463.3 J/K/mol
487 K, Liquid	463.4 J/K/mol
488 K, Liquid	463.6 J/K/mol
489 K, Liquid	463.8 J/K/mol
490 K, Liquid	463.9 J/K/mol
491 K, Liquid	464.1 J/K/mol
492 K, Liquid	464.6 J/K/mol
493 K, Liquid	464.6 J/K/mol
494 K, Liquid	464.9 J/K/mol
495 K, Liquid	465.2 J/K/mol
496 K, Liquid	465.5 J/K/mol
497 K, Liquid	465.6 J/K/mol
498 K, Liquid	465.8 J/K/mol
499 K, Liquid	466 J/K/mol
500 K, Liquid	466.2 J/K/mol
501 K, Liquid	466.4 J/K/mol
502 K, Liquid	466.6 J/K/mol
503 K, Liquid	466.1 J/K/mol
504 K, Liquid	467 J/K/mol
505 K, Liquid	467.2 J/K/mol
506 K, Liquid	467.4 J/K/mol
507 K, Liquid	467 J/K/mol
508 K, Liquid	467.8 J/K/mol
509 K, Liquid	466.6 J/K/mol
510 K, Liquid	469 J/K/mol and 466.2 J/K/mol
511 K, Liquid	466.2 J/K/mol
512 K, Liquid	464.1 J/K/mol
513 K, Liquid	465.5 J/K/mol
514 K, Liquid	464.5 J/K/mol
515 K, Liquid	471.8 J/K/mol
516 K, Liquid	470.4 J/K/mol
517 K, Liquid	466.9 J/K/mol
518 K, Liquid	471.1 J/K/mol
519 K, Liquid	476.4 J/K/mol
520 K, Liquid	475.7 J/K/mol and 471.8 J/K/mol
521 K, Liquid	475.7 J/K/mol
522 K, Liquid	480.9 J/K/mol
523 K, Liquid	478.1 J/K/mol
524 K, Liquid	478.6 J/K/mol
525 K, Liquid	479.1 J/K/mol
526 K, Liquid	478.1 J/K/mol
527 K, Liquid	478.7 J/K/mol
528 K, Liquid	478.8 J/K/mol
529 K, Liquid	485.8 J/K/mol
530 K, Liquid	480.6 J/K/mol
531 K, Liquid	474.6 J/K/mol
532 K, Liquid	475.7 J/K/mol
533 K, Liquid	476 J/K/mol
534 K, Liquid	477.4 J/K/mol
535 K, Liquid	483.4 J/K/mol and 478.8 J/K/mol
536 K, Liquid	480.6 J/K/mol
537 K, Liquid	481.3 J/K/mol
538 K, Liquid	483.4 J/K/mol
539 K, Liquid	484.4 J/K/mol
540 K, Liquid	486.5 J/K/mol
541 K, Liquid	486.9 J/K/mol
542 K, Liquid	487.6 J/K/mol
543 K, Liquid	489 J/K/mol
544 K, Liquid	490.7 J/K/mol
545 K, Liquid	491.8 J/K/mol
546 K, Liquid	493.5 J/K/mol
547 K, Liquid	494.9 J/K/mol
548 K, Liquid	495.6 J/K/mol
549 K, Liquid	496.7 J/K/mol
550 K, Liquid	498.4 J/K/mol
551 K, Liquid	499.5 J/K/mol
552 K, Liquid	500.9 J/K/mol
553 K, Liquid	502.3 J/K/mol
554 K, Liquid	503 J/K/mol
555 K, Liquid	504.4 J/K/mol
556 K, Liquid	505.8 J/K/mol
557 K, Liquid	506.5 J/K/mol
558 K, Liquid	508.2 J/K/mol
559 K, Liquid	508.9 J/K/mol
560 K, Liquid	510.3 J/K/mol
561 K, Liquid	511.4 J/K/mol
562 K, Liquid	512.4 J/K/mol
563 K, Liquid	513.1 J/K/mol
564 K, Liquid	514.2 J/K/mol
565 K, Liquid	515.2 J/K/mol
566 K, Liquid	517 J/K/mol
567 K, Liquid	518 J/K/mol
568 K, Liquid	518.4 J/K/mol
569 K, Liquid	518.4 J/K/mol
570 K, Liquid	519.1 J/K/mol
571 K, Liquid	519.4 J/K/mol
572 K, Liquid	518.4 J/K/mol
573 K, Liquid	519.1 J/K/mol
574 K, Liquid	519.1 J/K/mol
575 K, Liquid	521.4 J/K/mol and 519.4 J/K/mol
576 K, Liquid	519.8 J/K/mol
577 K, Liquid	518.7 J/K/mol
578 K, Liquid	511.7 J/K/mol
579 K, Liquid	512.8 J/K/mol
580 K, Liquid	514.2 J/K/mol and 525.2 J/K/mol
581 K, Liquid	515.9 J/K/mol
582 K, Liquid	517.3 J/K/mol
583 K, Liquid	518.7 J/K/mol
584 K, Liquid	520.5 J/K/mol
585 K, Liquid	521.9 J/K/mol and 529.9 J/K/mol
586 K, Liquid	524 J/K/mol
587 K, Liquid	525.4 J/K/mol
588 K, Liquid	526.8 J/K/mol
589 K, Liquid	528.2 J/K/mol
590 K, Liquid	529.9 J/K/mol and 531.4 J/K/mol
591 K, Liquid	525.4 J/K/mol
592 K, Liquid	525.4 J/K/mol
593 K, Liquid	526.1 J/K/mol
594 K, Liquid	526.4 J/K/mol
595 K, Liquid	525.4 J/K/mol and 534.2 J/K/mol
596 K, Liquid	526.1 J/K/mol
597 K, Liquid	526.1 J/K/mol
598 K, Liquid	527.1 J/K/mol
599 K, Liquid	525.7 J/K/mol
600 K, Liquid	525 J/K/mol and 537.1 J/K/mol
601 K, Liquid	526.4 J/K/mol
602 K, Liquid	521.9 J/K/mol
603 K, Liquid	521.9 J/K/mol
604 K, Liquid	519.8 J/K/mol
605 K, Liquid	522.6 J/K/mol and 539.5 J/K/mol
606 K, Liquid	524.7 J/K/mol
607 K, Liquid	524.7 J/K/mol
608 K, Liquid	520.8 J/K/mol
609 K, Liquid	521.9 J/K/mol
610 K, Liquid	526.8 J/K/mol and 541 J/K/mol
611 K, Liquid	532 J/K/mol
612 K, Liquid	525 J/K/mol
613 K, Liquid	529.2 J/K/mol
614 K, Liquid	536.6 J/K/mol
615 K, Liquid	532 J/K/mol and 545.6 J/K/mol
616 K, Liquid	533.8 J/K/mol
617 K, Liquid	541.5 J/K/mol
618 K, Liquid	537.6 J/K/mol
619 K, Liquid	543.2 J/K/mol
620 K, Liquid	538.7 J/K/mol and 547.7 J/K/mol
621 K, Liquid	542.2 J/K/mol
622 K, Liquid	543.6 J/K/mol
623 K, Liquid	544.3 J/K/mol
623.15 K, Liquid	543.9 J/K/mol and 552.9 J/K/mol
